Data set [1] has as its system Biozzi ABH mice with visible spasticity (relapsing progressive experimental autoimmune encephalomyelitis). Description: Spasticity (limb stiffness against a strain gauge) in Biozzi ABH mice with relapsing progressive experimental autoimmune encephalomyelitis. It is filed as in vivo, mouse. The note with it: result in words.
Method: BMS 204352 and NS 1619 were dissolved in ethanol:cremophor:phosphate buffered saline 1:1:18. […] Paxilline was used at 1 mg/kg, just below doses reported to cause tremors in mice.
Biozzi ABH were injected with mouse spinal cord homogenate in Freunds adjuvant on day 0 and day 7 based on published protocols (Al-Izki S. et al. Mult Scler Rel Dis. 2012; 1: 29-38 and relapsing progressive experimental autoimmune encephalomyelitis developed. Following the development of visible spasticity animals were randomly allocated to treatment groups and spasticity was assessed by measuring limb stiffness against a strain guage (Pryce G. et al. FASEB J. 28: 2014; 117-130).
Animals were injected with: • BMS 204352: 20 mg/kg i.p. n=11 (FIG. 1; Table 2); • NS 1619: 10 mg/kg i.p. n=13 (FIG. 2; Table 1); • NS 11021: 10 mg/kg i.p. n=13 (FIG. 3; Table 3) in ethanol:cremophor:PBS (1:1:18).
For data set [2] the following is noted: from previously published data; cited from earlier work.
The conditions of data set [3]: from previously published data; cited from earlier work. This is another data set of the same source.

On to `COc1ccc(Cl)cc1[C@]1(F)C(=O)Nc2cc(C(F)(F)F)ccc21` [BMS 204352, (3S)-3-(5-chloro-2-methoxyphenyl)-3-fluoro-1,3-dihydro-6-(trifluoromethyl)-2H-Indol-2-one], for which, in data set [1], the “Efficacy in a mouse model of spasticity in multiple sclerosis” value is reported as “effective”. The Tolerability entry in data set [2] was “well tolerated”. The CNS penetration entry in data set [3] was “CNS penetrant”.
As for `O=c1[nH]c2cc(C(F)(F)F)ccc2n1-c1cc(C(F)(F)F)ccc1O` [NS 1619, 1,3-dihydro-1-[2-hydroxy-5-(trifluoromethyl)phenyl]-5-(trifluoromethyl)-2H-benzimidazol-2-one], the CNS penetration result in data set [3] was “CNS excluded”.
